Values of other authors, collected in patent publication US20050101548A1, “Antimicrobial derivatives” (priority 2003, published 2005).

What was measured:
[1] = system: macrolide-sensitive and resistant bacteria

SMILES | antibacterial activity against S. pneumoniae (S. pneumoniae) | further results
C=C1CO[C@@H]2[C@@H](C)/C(=N/C(C)=O)[C@H](C)C[C@@](C)(OC1)[C@H](O[C@@H]1O[C@H](C)C[C@H](N(C)C)[C@H]1O)[C@@H](C)C(=O)[C@@H](C)C(=O)O[C@H](CC)[C@@]2(C)O [EP-1304] | – | activity against some macrolide-sensitive and resistant bacteria in vivo [1]: exhibits activity
CC[C@H]1OC(=O)[C@H](C)C(=O)[C@H](C)[C@@H](O[C@@H]2O[C@H](C)C[C@H](N(C)C)[C@H]2O)[C@@]2(C)C[C@@H](C)/C(=N\C(C)=O)[C@H](C)[C@@H](OCC(=NOCc3ccccc3)CO2)[C@]1(C)O [EP-1562] | possess antibacterial activity | –
CC[C@H]1OC(=O)[C@H](C)C(=O)[C@H](C)[C@@H](O[C@@H]2O[C@H](C)C[C@H](N(C)C)[C@H]2O)[C@@]2(C)C[C@@H](C)/C(=N\C(C)=O)[C@H](C)[C@@H](OCC(=NOCc3ccc(-c4cccnc4)s3)CO2)[C@]1(C)O [EP-12728] | possess antibacterial activity | –
CC[C@H]1OC(=O)[C@H](C)[C@@H](O[C@H]2C[C@@](C)(OC)[C@@H](O)[C@H](C)O2)[C@H](C)[C@@H](O[C@@H]2O[C@H](C)C[C@H](N(C)C)[C@H]2O)[C@](C)(O)C[C@@H](C)C(=O)[C@H](C)[C@@H](O)[C@]1(C)O [erythromycin A] | – | activity against Gram-negative bacteria (Gram-negative bacteria): only weak activity
